Source: PMC3616073, “Engineering Agatoxin, a Cystine-Knot Peptide from Spider Venom, as a Molecular Probe for In Vivo Tumor Imaging” (PLoS ONE, 2013)
Like-named read-outs stand apart in the source and are kept apart here. Where a SMILES comes first, the peptide text is derived from it. Bridges are numbered along the chain shown (N, C = ends).

How the values were obtained:
[1] = design: method as in PMID 20124048, PMID 19276378; conditions: cited from earlier work; for Stability in serum and blood: radiolabeled probes of earlier studies
[2] = biological target: T1, αvβ3 integrin on K562-αvβ3 cells (Homo sapiens, UniProt P05106+P06756); test: Competition binding assay on K562-αvβ3 cells (FLAG-AgRP 7A competitor, flow cytometry); conditions: competition with 0.5 nM FLAG-AgRP 7A, 5×10^4 K562-αvβ3 cells in IBB, 4 hr at 4 °C, anti-FLAG flow cytometry, mean of three experiments ± SD, read-out: IC50 (relative binding affinity to K562-αvβ3 cells)
T1 construct: expressed in transfected cells; host or cells: K562 leukemia cells (courtesy of S. Blystone)
From the text: Competition binding assays were used to measure the relative affinities of the AgTx 7C variants and AgRP 7C to K562 leukemia cells transfected to express high levels of αvβ3 integrin [50]. […] FLAG-AgRP 7A contains an N-terminal FLAG epitope tag (DYKDDDDK), which allows detection of cell surface binding by flow cytometry using a fluorescently labeled anti-FLAG antibody.
Figure 3 Engineered AgTx 7C variants bind to K562-αvβ3 cells with similar IC50 values. Varying concentrations of AgRP 7C and AgTx 7C variants were incubated with FLAG-AgRP 7A and allowed to compete for binding to integrin receptors expressed on the surface of K562-αvβ3 cells. Representative competition binding curves are shown, and are plotted as knottin concentration versus the fraction of FLAG-AgRP 7A bound. IC50 values reported as mean of three experiments ± SD. TEXT PRINTED IN THE PICTURE: AgRP 7C: IC50 (nM): 2.2 ± 1.0 | AgTx 7C ΔR21: IC50 (nM): 2.3 ± 0.5 | AgTx 7C P22G R24I: IC50 (nM): 8.1 ± 1.6 | AgTx 7C ΔR21 P22G R24I: IC50 (nM): 5.1 ± 1.6 | AgTx 7C ΔR9: IC50 (nM): 2.5 ± 0.4
Competition binding assays were performed on K562 leukemia cells transfected to express high levels of αvβ3 integrins. Varying concentrations of AgRP 7C and AgTx variants were incubated with 5×10^4 K562-αvβ3 cells in IBB for 4 hr at 4 °C, along with a constant concentration (0.5 nM) of recombinantly expressed FLAG-AgRP 7A knottin as a competitor. FLAG-AgRP 7A binds with high affinity to αvβ3 integrin and contains an N-terminal epitope tag (DYKDDDDK), allowing cell surface binding to be detecting using an anti-FLAG antibody. Care was taken to allow adequate time for equilibrium binding and to avoid ligand depleting conditions. […] Cells were washed with BPBS and analyzed by flow cytometry on a FACSCalibur instrument (BD Biosciences), and data was quantified using FlowJo software (TreeStar). IC50 values were determined by nonlinear regression analysis using KaleidaGraph (Synergy Software). […]

[3] = biological target: T2, αvβ3 integrins expressed on U87MG glioblastoma cells (Homo sapiens, UniProt P05106+P06756); test: Competition binding assay on U87MG glioblastoma cells (FLAG-AgRP 7A competitor, flow cytometry); conditions: competition with 5 nM FLAG-AgRP 7A, 5×10^4 U87MG cells in IBB, 4 hr at 4 °C, mean of three experiments ± SD
T2 construct: U87MG glioblastoma cells, which express high levels of αvβ3 integrin receptors; host or cells: U87MG human glioblastoma cells
From the text: For simplicity, we chose to move forward with AgTx 7C ΔR21 for in vivo molecular imaging studies. To visualize tumor targeting and tissue biodistribution, we conjugated the near-infrared dye Alexa Fluor 680 (AF680) to the N-terminal amino group of AgTx 7C ΔR21 (Fig. S3A). We also synthesized AF680-labeled versions of AgRP 7C and EETI 2.5F for comparison studies. AF680-labeled EETI RDG, which contains a scrambled integrin recognition sequence, [30], served as a non-binding control. AF680-labeled knottin peptides were purified by RP-HPLC and had the expected masses for the addition of one dye molecule (Fig. S3B, C). Competition binding assays were used to determine if AF680 conjugation affected integrin recognition. FLAG-AgRP 7A was used to compete for knottin binding to U87MG human glioblastoma cells (Fig. 4).
Figure 4 Unlabeled and AF680-labeled knottins bind U87MG cells with high affinity. […]
Competition binding assays were performed on K562 leukemia cells transfected to express high levels of αvβ3 integrins. […] Cells were washed with BPBS and analyzed by flow cytometry on a FACSCalibur instrument (BD Biosciences), and data was quantified using FlowJo software (TreeStar). IC50 values were determined by nonlinear regression analysis using KaleidaGraph (Synergy Software). […]

Compound	Stability in serum and blood [1]	IC50 [2] [nM]	other results
CC(C)C[C@@H]1NC(=O)[C@@H]2CSSC[C@@H]3NC(=O)[C@H]([C@@H](C)O)NC(=O)[C@H](C)NC(=O)[C@H](C)NC(=O)[C@@H]4CCCN4C(=O)[C@H](CC(=O)O)NC(=O)[C@H](CSSC[C@H](NC(=O)CN)C(=O)N[C@@H](C(C)C)C(=O)N[C@@H](CCCNC(=N)N)C(=O)N[C@@H](CC(C)C)C(=O)N[C@@H](Cc4c[nH]cn4)C(=O)N[C@@H](CCC(=O)O)C(=O)N[C@@H](CO)C(=O)N2)NC(=O)[C@H](CSSC[C@@H](C(=O)N[C@@H](CCCNC(=N)N)C(=O)O)NC(=O)[C@H](Cc2ccc(O)cc2)NC(=O)[C@@H]2CSSC[C@H](NC(=O)[C@H](Cc4ccc(O)cc4)NC3=O)C(=O)N[C@@H](Cc3ccc(O)cc3)C(=O)NCC(=O)N[C@@H](CCCNC(=N)N)C(=O)NCC(=O)N[C@@H](CC(=O)O)C(=O)N[C@@H](CC(N)=O)C(=O)N[C@@H](CC(=O)O)C(=O)N[C@@H](CC(C)C)C(=O)N[C@@H](CCCNC(=N)N)C(=O)N2)NC(=O)[C@@H]2CCCN2C(=O)[C@H](C(C)C)NC(=O)[C@H](CCC(N)=O)NC(=O)[C@H](CCC(N)=O)NC(=O)CNC1=O [AgRP 7C] (H-GCVRLHESCLGQQVPCCDPAATCYCYGRGDNDLRCYCR-OH; disulfide 2-17, 9-23, 16-37, 25-35)	remarkably stable in serum and blood	–	Metabolic breakdown in the liver, kidneys, and tumor ([1]; compared to EETI 2.5F): higher levels of metabolic breakdown
CC[C@H](C)[C@@H]1NC(=O)[C@@H](NC(=O)CN)CSSC[C@@H]2NC(=O)[C@@H]3CSSC[C@@H](C(=O)N[C@H](C(=O)O)[C@@H](C)O)NC(=O)[C@H](CCC(=O)O)NC(=O)[C@@H]4CSSC[C@H](NC(=O)[C@H]([C@@H](C)CC)NC(=O)[C@H](CSSC[C@H](NC(=O)[C@H](CCCNC(=N)N)NC(=O)CNC(=O)[C@H](Cc5ccc(O)cc5)NC(=O)[C@H](CC(=O)O)NC(=O)[C@H](CCC(=O)O)NC(=O)[C@H](C)NC1=O)C(=O)N[C@@H]([C@@H](C)O)C(=O)N[C@@H](Cc1c[nH]c5ccccc15)C(=O)NCC(=O)NCC(=O)N[C@@H]([C@@H](C)O)C(=O)N1CCC[C@H]1C(=O)N3)NC(=O)CNC(=O)[C@H](CCCNC(=N)N)NC(=O)CNC(=O)[C@H](CCCNC(=N)N)NC2=O)C(=O)N[C@@H](Cc1ccc(O)cc1)C(=O)NCC(=O)N[C@@H](CCCNC(=N)N)C(=O)NCC(=O)N[C@@H](CC(=O)O)C(=O)N[C@@H](CC(N)=O)C(=O)N[C@@H](CC(=O)O)C(=O)N[C@@H](CC(C)C)C(=O)N[C@@H](CCCNC(=N)N)C(=O)N4 [AgTx 7C P22G R24I] (H-GCIAEDYGRCTWGGTPCCRGRGCICYGRGDNDLRCECT-OH; disulfide 2-18, 10-23, 17-37, 25-35)	–	8.1 ± 1.6	–
CC[C@H](C)[C@@H]1NC(=O)[C@@H](NC(=O)CN)CSSC[C@@H]2NC(=O)[C@@H]3CSSC[C@@H](C(=O)N[C@H](C(=O)O)[C@@H](C)O)NC(=O)[C@H](CCC(=O)O)NC(=O)[C@@H]4CSSC[C@H](NC(=O)[C@H]([C@@H](C)CC)NC(=O)[C@H](CSSC[C@H](NC(=O)[C@H](CCCNC(=N)N)NC(=O)CNC(=O)[C@H](Cc5ccc(O)cc5)NC(=O)[C@H](CC(=O)O)NC(=O)[C@H](CCC(=O)O)NC(=O)[C@H](C)NC1=O)C(=O)N[C@@H]([C@@H](C)O)C(=O)N[C@@H](Cc1c[nH]c5ccccc15)C(=O)NCC(=O)NCC(=O)N[C@@H]([C@@H](C)O)C(=O)N1CCC[C@H]1C(=O)N3)NC(=O)CNC(=O)CNC(=O)[C@H](CCCNC(=N)N)NC2=O)C(=O)N[C@@H](Cc1ccc(O)cc1)C(=O)NCC(=O)N[C@@H](CCCNC(=N)N)C(=O)NCC(=O)N[C@@H](CC(=O)O)C(=O)N[C@@H](CC(N)=O)C(=O)N[C@@H](CC(=O)O)C(=O)N[C@@H](CC(C)C)C(=O)N[C@@H](CCCNC(=N)N)C(=O)N4 [AgTx 7C ΔR21 P22G R24I] (H-GCIAEDYGRCTWGGTPCCRGGCICYGRGDNDLRCECT-OH; disulfide 2-18, 10-22, 17-36, 24-34)	–	5.1 ± 1.6	–
CC[C@H](C)[C@@H]1NC(=O)[C@@H](NC(=O)CN)CSSC[C@@H]2NC(=O)[C@@H]3CSSC[C@@H](C(=O)N[C@H](C(=O)O)[C@@H](C)O)NC(=O)[C@H](CCC(=O)O)NC(=O)[C@@H]4CSSC[C@H](NC(=O)[C@H](CCCNC(=N)N)NC(=O)[C@H](CSSC[C@H](NC(=O)[C@H](CCCNC(=N)N)NC(=O)CNC(=O)[C@H](Cc5ccc(O)cc5)NC(=O)[C@H](CC(=O)O)NC(=O)[C@H](CCC(=O)O)NC(=O)[C@H](C)NC1=O)C(=O)N[C@@H]([C@@H](C)O)C(=O)N[C@@H](Cc1c[nH]c5ccccc15)C(=O)NCC(=O)NCC(=O)N[C@@H]([C@@H](C)O)C(=O)N1CCC[C@H]1C(=O)N3)NC(=O)[C@@H]1CCCN1C(=O)CNC(=O)[C@H](CCCNC(=N)N)NC2=O)C(=O)N[C@@H](Cc1ccc(O)cc1)C(=O)NCC(=O)N[C@@H](CCCNC(=N)N)C(=O)NCC(=O)N[C@@H](CC(=O)O)C(=O)N[C@@H](CC(N)=O)C(=O)N[C@@H](CC(=O)O)C(=O)N[C@@H](CC(C)C)C(=O)N[C@@H](CCCNC(=N)N)C(=O)N4 [AgTx 7C ΔR21] (H-GCIAEDYGRCTWGGTPCCRGPCRCYGRGDNDLRCECT-OH; disulfide 2-18, 10-22, 17-36, 24-34)	–	2.3 ± 0.5	IC50 ([3]; unlabeled knottin, read-out: IC50, Unlabeled): 10 ± 1 nM
CC(C)C[C@@H]1NC(=O)[C@@H]2CSSC[C@@H](C(=O)NCC(=O)O)NC(=O)[C@H](Cc3ccccc3)NC(=O)CNC(=O)[C@H](CC(N)=O)NC(=O)[C@@H]3CCCN3C(=O)CNC(=O)[C@@H]3CSSC[C@H](NC(=O)[C@H]([C@@H](C)O)NC(=O)[C@H](CC(C)C)NC(=O)[C@@H]4CCCN4C(=O)[C@@H]4CCCN4C(=O)[C@H](CC(N)=O)NC(=O)[C@H](CC(=O)O)NC(=O)CNC(=O)[C@H](CCCNC(=N)N)NC(=O)[C@@H]4CCCN4C(=O)[C@H](CCCNC(=N)N)NC(=O)[C@@H]4CCCN4C(=O)[C@@H](NC(=O)CN)CSSC[C@H](NC(=O)CNC(=O)[C@H](C)NC1=O)C(=O)N[C@@H](C(C)C)C(=O)N3)C(=O)N[C@@H](CO)C(=O)N[C@@H](CCC(N)=O)C(=O)N[C@@H](CC(=O)O)C(=O)N[C@@H](CO)C(=O)N[C@@H](CC(=O)O)C(=O)N2 [EETI 2.5F] (H-GCPRPRGDNPPLTCSQDSDCLAGCVCGPNGFCG-OH; disulfide 2-24, 14-26, 20-32)	remarkably stable in serum and blood	–	–
AF680-labeled EETI 2.5F: EETI 2.5F with one Alexa Fluor 680 dye at the N-terminus (CPRPRGDNPPLTCKQDSDCLAGCVCGPNGFCG; Alexa Fluor 680 on N-terminal amine; 3 disulfides)	–	–	IC50 ([3]; AF680-labeled knottin, read-out: IC50, AF680 labeled): 4 ± 0.2 nM
